# Active and inactive are the calls of the source.
# Key:
# Type in all cases: functional
# [1] = target: Phosphorylase b kinase gamma catalytic chain, liver/testis isoform (Homo sapiens, UniProt P15735);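 note: PHKG2 measured as one member of a kinome-wide kinase panel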
# [2] = target: ALK tyrosine kinase receptor (Homo sapiens, UniProt Q9UM73);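 note: ALK tested as one member of a kinase panel screen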
# [3] = target: Serine/threonine-protein kinase PLK4 (Homo sapiens, UniProt O00444);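 note: PLK4 measured as one member of a kinome-wide kinase profiling panel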
# [4] = target: Cyclin-dependent kinase 2 (Homo sapiens, UniProt P24941);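 note: CDK2 measured as one member of a broad kinome profiling panel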
# [5] = target: Mitogen-activated protein kinase 8 (Homo sapiens, UniProt P45983);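 note: value comes from one member of a kinome-wide kinase profiling panel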
# [6] = target: Casein kinase II subunit alpha (Homo sapiens, UniProt P68400)
# [7] = target: Serine/threonine-protein kinase PAK 4 (Homo sapiens, UniProt O96013);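 note: value obtained within a kinome profiling panel in which PAK4 was one of the panel members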
# [8] = target: Fibroblast growth factor receptor 1 (Homo sapiens, UniProt P11362)
# [9] = target: Tyrosine-protein kinase Lyn (Homo sapiens, UniProt P07948);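 note: lyn as one member of a kinase panel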
# [10] = target: Serine/threonine-protein kinase N2 (Homo sapiens, UniProt Q16513)
# [11] = target: Testis-specific serine/threonine-protein kinase 1 (Homo sapiens, UniProt Q9BXA7)
# [12] = target: Insulin receptor (Homo sapiens, UniProt P06213);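 note: insulin receptor kinase tested as one member of a kinome-wide kinase panel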
# [13] = target: Mitogen-activated protein kinase kinase kinase 20 (Homo sapiens, UniProt Q9NYL2)
# [14] = target: Serine/threonine-protein kinase pim-3 (Homo sapiens, UniProt Q86V86);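 note: value obtained as one member of a broad kinase panel profiling effort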
# [15] = target: Protein kinase C gamma type (Homo sapiens, UniProt P05129)
# [16] = target: Tyrosine-protein kinase Srms (Homo sapiens, UniProt Q9H3Y6);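 note: SRMS measured as one member of a kinome-wide kinase profiling panel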
# [17] = target: Casein kinase I isoform delta (Homo sapiens, UniProt P48730);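 note: measured as one member (CSNK1D) of a kinome panel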
# [18] = target: Vascular endothelial growth factor receptor 2 (Homo sapiens, UniProt P35968)
# [19] = target: Cyclin-dependent kinase 5 (Homo sapiens, UniProt Q00535);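 note: CDK5 measured as one member of a kinase profiling panel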
# [20] = target: Ephrin type-A receptor 2 (Homo sapiens, UniProt P29317);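 note: EPHA2 tested as one member of a kinome-wide kinase panel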
# [21] = target: Insulin-like growth factor 1 receptor (Homo sapiens, UniProt P08069); test: Navigating the Kinome. Panel member name: IGF1R
# [22] = target: Aurora kinase B (Homo sapiens, UniProt Q96GD4)
# [23] = target: Rho-associated protein kinase 1 (Homo sapiens, UniProt Q13464);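 note: measured within a broad kinome-wide panel profiling many kinases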
# [24] = target: Tyrosine-protein kinase Fer (Homo sapiens, UniProt P16591);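 note: FER tested as one member of a kinome panel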
# [25] = target: 3-phosphoinositide-dependent protein kinase 1 (Homo sapiens, UniProt O15530);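 note: value comes from the Navigating the Kinome panel, PDPK1 member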
# [26] = target: Serine/threonine-protein kinase DCLK1 (Homo sapiens, UniProt O15075);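 note: affinity for DCLK1 (listed as DCAMKL1) measured as one member of a kinome-wide kinase profiling panel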
# [27] = target: STE20-like serine/threonine-protein kinase (Homo sapiens, UniProt Q9H2G2)
# [28] = target: Glycogen synthase kinase-3 beta (Homo sapiens, UniProt P49841);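 note: value comes from a broad kinome profiling panel, with GSK3B as the panel member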
# [29] = target: BDNF/NT-3 growth factors receptor (Homo sapiens, UniProt Q16620);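 note: NTRK2 measured as one member of a broad kinome-wide kinase profiling panel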
# [30] = target: Lymphokine-activated killer T-cell-originated protein kinase (Homo sapiens, UniProt Q96KB5);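 note: value comes from a kinase panel screen in which TOPK was one of the panel members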
# [31] = target: Tyrosine-protein kinase FRK (Homo sapiens, UniProt P42685);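 note: FRK tested as one member of a kinome panel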
# [32] = test system: Vero; test: Vero cell cytotoxicity, cytotoxicity control for flavivirus capping enzyme inhibitors (AID 588742); details: Chlorocebus sabaeus
# [33] = target: T1, Protein RecA (Mycobacterium tuberculosis, UniProt P9WHJ3); test: Fluorescence Cell-Free Homogeneous Dose Retest to Identify Inhibitors of RecA-Intein Splicing Activity. [Related pubchem assays (depositor defined):AID2097, AID2223, AID489010, AID492950]
# T1 sequence (P9WHJ3 whole entry): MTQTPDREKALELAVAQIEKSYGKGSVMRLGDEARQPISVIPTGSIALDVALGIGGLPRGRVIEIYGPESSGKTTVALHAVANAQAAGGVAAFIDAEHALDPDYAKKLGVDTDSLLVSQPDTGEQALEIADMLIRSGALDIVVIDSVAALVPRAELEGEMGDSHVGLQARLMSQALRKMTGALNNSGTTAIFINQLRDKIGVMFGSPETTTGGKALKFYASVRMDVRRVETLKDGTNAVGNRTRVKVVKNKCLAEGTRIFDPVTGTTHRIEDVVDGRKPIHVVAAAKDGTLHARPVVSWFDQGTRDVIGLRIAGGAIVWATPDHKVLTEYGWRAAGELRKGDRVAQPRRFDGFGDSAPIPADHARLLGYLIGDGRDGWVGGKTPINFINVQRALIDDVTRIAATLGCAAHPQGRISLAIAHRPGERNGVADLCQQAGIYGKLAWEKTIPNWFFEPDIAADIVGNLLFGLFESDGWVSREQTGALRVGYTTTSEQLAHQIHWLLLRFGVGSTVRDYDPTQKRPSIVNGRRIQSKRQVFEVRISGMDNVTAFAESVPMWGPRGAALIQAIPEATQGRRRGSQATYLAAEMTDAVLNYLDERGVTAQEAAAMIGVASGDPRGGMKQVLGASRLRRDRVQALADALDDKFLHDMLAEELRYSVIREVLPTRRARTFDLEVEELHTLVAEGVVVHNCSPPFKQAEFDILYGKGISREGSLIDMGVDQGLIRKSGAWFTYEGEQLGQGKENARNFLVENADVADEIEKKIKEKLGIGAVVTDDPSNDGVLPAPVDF
# [34] = target: Genome polyprotein (dengue virus type 2, UniProt P29990); test: Dengue-2 NS5 methyltransferase inhibitors, primary screen, biochemical, confirmation dose response (AID 588689)
# Sequence of Genome polyprotein (P29990 2492-3391 limits assumed): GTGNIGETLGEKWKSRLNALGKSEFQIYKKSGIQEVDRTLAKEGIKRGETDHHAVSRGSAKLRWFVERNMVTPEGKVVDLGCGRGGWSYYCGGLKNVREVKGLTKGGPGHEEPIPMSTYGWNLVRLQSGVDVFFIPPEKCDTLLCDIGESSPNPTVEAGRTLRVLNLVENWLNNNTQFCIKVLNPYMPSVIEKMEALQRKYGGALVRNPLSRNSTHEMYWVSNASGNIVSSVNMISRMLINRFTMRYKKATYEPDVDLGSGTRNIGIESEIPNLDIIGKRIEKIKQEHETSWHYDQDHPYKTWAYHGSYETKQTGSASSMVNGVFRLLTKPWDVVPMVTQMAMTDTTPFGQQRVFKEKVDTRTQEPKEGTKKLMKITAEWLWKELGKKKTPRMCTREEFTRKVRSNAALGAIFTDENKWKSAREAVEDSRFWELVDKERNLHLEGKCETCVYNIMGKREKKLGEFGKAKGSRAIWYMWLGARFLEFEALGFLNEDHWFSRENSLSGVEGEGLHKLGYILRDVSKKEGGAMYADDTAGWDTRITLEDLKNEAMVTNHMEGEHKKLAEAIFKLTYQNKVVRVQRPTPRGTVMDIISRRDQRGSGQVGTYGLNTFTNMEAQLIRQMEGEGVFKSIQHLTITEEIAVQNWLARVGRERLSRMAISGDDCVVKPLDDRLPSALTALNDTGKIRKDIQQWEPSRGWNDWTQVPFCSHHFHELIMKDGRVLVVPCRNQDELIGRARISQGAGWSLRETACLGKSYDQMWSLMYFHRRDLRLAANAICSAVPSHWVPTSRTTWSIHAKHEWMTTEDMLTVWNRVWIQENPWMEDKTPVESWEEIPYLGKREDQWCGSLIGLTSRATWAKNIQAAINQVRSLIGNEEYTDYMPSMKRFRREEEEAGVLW
# Sequence of Serine/threonine-protein kinase N2 (Q16513 whole entry): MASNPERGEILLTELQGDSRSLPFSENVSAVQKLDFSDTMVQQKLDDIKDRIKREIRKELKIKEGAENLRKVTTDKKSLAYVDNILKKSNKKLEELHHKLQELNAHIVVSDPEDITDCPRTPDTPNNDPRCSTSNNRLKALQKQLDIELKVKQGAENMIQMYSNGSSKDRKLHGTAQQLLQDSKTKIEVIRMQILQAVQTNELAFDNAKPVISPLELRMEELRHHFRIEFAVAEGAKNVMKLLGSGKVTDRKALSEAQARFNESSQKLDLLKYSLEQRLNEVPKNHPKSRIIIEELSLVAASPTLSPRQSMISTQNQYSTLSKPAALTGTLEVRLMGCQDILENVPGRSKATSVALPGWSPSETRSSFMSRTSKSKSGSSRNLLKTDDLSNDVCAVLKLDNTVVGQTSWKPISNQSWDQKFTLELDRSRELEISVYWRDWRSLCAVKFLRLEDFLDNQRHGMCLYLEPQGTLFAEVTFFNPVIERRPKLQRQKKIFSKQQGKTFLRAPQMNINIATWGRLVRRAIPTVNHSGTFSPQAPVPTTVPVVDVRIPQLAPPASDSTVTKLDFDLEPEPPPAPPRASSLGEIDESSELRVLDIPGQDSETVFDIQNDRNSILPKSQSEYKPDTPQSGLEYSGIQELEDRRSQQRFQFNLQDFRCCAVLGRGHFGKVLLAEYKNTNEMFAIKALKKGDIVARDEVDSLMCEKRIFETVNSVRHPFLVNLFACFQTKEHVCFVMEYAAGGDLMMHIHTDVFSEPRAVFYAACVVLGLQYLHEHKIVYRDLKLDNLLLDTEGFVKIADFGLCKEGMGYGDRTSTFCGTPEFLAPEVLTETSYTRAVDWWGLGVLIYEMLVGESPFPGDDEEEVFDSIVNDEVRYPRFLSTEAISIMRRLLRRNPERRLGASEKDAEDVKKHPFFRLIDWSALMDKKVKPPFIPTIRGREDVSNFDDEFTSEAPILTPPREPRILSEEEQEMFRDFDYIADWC
# Sequence of ALK tyrosine kinase receptor (Q9UM73 whole entry): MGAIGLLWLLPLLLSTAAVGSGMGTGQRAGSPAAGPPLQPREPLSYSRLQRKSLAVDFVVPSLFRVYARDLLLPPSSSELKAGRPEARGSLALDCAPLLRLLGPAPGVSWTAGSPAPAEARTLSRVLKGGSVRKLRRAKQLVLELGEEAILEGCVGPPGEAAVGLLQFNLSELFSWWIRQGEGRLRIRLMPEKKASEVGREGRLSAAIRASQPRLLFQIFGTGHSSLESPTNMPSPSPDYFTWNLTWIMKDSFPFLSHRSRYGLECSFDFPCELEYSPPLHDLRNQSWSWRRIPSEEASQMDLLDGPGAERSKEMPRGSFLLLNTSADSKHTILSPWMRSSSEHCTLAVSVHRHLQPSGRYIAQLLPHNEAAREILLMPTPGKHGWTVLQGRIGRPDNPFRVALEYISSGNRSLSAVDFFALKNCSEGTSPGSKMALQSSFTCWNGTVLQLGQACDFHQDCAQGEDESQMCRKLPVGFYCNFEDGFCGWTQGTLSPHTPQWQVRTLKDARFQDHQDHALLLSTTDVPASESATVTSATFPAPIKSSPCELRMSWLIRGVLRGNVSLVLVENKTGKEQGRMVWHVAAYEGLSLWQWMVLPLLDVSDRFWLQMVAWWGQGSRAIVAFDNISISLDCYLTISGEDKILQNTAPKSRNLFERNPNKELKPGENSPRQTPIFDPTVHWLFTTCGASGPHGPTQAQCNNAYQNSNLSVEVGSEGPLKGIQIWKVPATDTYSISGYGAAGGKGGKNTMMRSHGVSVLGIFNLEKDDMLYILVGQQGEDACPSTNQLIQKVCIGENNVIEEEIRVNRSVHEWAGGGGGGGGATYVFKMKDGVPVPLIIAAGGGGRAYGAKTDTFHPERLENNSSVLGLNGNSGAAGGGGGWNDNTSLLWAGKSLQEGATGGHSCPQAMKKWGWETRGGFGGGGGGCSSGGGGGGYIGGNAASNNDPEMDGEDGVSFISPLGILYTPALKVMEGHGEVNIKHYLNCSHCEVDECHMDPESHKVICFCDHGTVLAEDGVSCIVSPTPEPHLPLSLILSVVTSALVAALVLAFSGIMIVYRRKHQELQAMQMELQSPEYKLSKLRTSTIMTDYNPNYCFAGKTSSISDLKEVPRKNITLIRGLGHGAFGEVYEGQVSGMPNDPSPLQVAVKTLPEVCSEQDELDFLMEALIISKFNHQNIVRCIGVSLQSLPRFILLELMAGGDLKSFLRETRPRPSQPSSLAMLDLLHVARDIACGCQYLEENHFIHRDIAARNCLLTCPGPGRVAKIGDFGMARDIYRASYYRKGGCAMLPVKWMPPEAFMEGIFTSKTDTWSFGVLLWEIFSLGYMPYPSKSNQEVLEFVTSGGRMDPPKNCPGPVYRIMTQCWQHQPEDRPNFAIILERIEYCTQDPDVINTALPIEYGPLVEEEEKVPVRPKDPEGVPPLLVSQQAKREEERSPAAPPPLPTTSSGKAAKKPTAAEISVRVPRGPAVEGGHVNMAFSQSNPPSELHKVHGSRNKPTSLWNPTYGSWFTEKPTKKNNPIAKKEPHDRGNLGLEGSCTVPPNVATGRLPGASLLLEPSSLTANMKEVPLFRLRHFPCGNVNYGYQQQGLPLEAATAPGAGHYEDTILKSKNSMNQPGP
# Sequence of Mitogen-activated protein kinase 8 (P45983 whole entry): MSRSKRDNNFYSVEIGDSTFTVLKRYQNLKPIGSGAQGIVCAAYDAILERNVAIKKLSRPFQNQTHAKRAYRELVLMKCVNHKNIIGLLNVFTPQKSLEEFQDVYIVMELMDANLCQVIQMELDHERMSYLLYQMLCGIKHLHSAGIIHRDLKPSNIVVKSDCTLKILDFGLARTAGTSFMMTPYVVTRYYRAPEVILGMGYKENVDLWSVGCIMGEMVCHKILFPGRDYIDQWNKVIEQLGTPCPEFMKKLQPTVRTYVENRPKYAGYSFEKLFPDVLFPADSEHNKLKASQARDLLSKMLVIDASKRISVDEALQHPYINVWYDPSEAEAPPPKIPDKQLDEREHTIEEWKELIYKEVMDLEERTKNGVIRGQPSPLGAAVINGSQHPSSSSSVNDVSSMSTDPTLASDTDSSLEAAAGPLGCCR
# Sequence of Tyrosine-protein kinase Fer (P16591 whole entry): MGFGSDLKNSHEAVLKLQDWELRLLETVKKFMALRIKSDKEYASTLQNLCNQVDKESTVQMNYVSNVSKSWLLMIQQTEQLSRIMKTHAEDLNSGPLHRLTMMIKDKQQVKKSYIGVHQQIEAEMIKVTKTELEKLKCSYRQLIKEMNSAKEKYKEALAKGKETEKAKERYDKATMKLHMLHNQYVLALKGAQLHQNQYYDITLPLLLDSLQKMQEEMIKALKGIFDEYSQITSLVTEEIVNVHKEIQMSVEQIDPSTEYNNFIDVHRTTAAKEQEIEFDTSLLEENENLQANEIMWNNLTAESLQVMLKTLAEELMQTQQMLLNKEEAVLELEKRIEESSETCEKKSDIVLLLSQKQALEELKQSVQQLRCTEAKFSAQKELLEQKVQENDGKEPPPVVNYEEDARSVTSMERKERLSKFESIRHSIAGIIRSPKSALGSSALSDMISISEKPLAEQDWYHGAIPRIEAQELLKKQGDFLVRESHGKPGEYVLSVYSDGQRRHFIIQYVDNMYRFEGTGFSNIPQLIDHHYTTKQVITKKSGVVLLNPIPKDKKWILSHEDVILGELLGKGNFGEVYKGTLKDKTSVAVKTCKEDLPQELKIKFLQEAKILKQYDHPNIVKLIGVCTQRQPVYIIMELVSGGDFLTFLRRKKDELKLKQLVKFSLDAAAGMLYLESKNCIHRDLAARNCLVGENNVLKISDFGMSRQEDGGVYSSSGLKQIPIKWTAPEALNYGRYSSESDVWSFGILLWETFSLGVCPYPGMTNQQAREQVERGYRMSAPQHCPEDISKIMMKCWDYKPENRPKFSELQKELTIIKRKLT
structure (smiles),measurement,setting,value
Cn1cncc1C(OCc1c(-c2ccc(OC(F)(F)F)cc2)cc(C#N)c(=O)n1C)c1ccc(C#N)cc1 (centres undefined),Ki,[1],> 5.01 µM (inactive)
same,Ki,[2],> 6.31 µM (inactive)
same,Ki,[3],> 3.98 µM (inactive)
same,Ki,[4],> 7.94 µM (inactive)
same,Ki,[5],> 3.16 µM (inactive)
same,Ki,[6],> 6.31 µM (inactive)
same,Ki,[7],> 5.01 µM (inactive)
same,Ki,[8],> 5.01 µM (inactive)
same,Ki,[9],0.316 µM (active)
same,Ki,[10],> 7.94 µM (inactive)
same,Ki,[11],> 1.58 µM (inactive)
same,Ki,[12],> 5.01 µM (inactive)
same,Ki,[13],> 7.94 µM (inactive)
same,Ki,[14],> 7.94 µM (inactive)
same,Ki,[15],> 7.94 µM (inactive)
same,Ki,[16],> 1.58 µM (inactive)
same,Ki,[17],> 7.94 µM (inactive)
same,Ki,[18],> 7.94 µM (inactive)
same,Ki,[19],> 10 µM (inactive)
same,Ki,[20],> 3.16 µM (inactive)
same,Ki,[21],> 2 µM (inactive)
same,Ki,[22],0.158 µM (active)
same,Ki,[23],> 10 µM (inactive)
same,Ki,[24],> 1.58 µM (inactive)
same,Ki,[25],> 3.98 µM (inactive)
same,Ki,[26],> 10 µM (inactive)
same,Ki,[27],> 10 µM (inactive)
same,Ki,[28],2.51 µM (active)
same,Ki,[29],> 5.01 µM (inactive)
same,Ki,[30],> 10 µM (inactive)
same,Ki,[31],> 2.51 µM (inactive)
CCc1ccc(S(=O)(=O)/N=C2\C=C(NS(=O)(=O)c3ccccc3)C(=O)c3ccccc32)cc1,CC50,[32],> 40 µM (active)
same,EC50,[33],3.08 µM (active)
same,IC50,[34],22.9 µM (active)

# Source: ChEMBL document CHEMBL1201862, “PubChem BioAssay data set” (2004)
